Consider four compounds from patent publication US6451807B1, “Methods of treating sexual dysfunction in an individual suffering from a retinal disease, class 1 congestive heart failure, or myocardial infarction using a PDE5 inhibitor” (Lilly Icos, LLC., priority 1999, dated 2002).

Data set [1] concerns the target T1, human PDE5 (Homo sapiens, UniProt O76074).
T1 construct: made in house; host or cells: Saccharomyces cerevisiae protease-deficient strain BJ2-54 (ATCC 74465)
The data set can be described thus: PDE5 enzyme inhibition, IC50 determination. It counts as biochemical.

For data set [2], the target named is T2, Bovine PDE6 (Bos taurus, UniProt P11541+P23439).
T2 construct: Hypotonic extracts were prepared by suspending isolated ROS; tissue Dr. N. Virmaux, INSERM U338, Strasbourg; host or cells: bovine retina, rod outer segment hypotonic extract
T2 sequence (P11541 2-856 limits assumed): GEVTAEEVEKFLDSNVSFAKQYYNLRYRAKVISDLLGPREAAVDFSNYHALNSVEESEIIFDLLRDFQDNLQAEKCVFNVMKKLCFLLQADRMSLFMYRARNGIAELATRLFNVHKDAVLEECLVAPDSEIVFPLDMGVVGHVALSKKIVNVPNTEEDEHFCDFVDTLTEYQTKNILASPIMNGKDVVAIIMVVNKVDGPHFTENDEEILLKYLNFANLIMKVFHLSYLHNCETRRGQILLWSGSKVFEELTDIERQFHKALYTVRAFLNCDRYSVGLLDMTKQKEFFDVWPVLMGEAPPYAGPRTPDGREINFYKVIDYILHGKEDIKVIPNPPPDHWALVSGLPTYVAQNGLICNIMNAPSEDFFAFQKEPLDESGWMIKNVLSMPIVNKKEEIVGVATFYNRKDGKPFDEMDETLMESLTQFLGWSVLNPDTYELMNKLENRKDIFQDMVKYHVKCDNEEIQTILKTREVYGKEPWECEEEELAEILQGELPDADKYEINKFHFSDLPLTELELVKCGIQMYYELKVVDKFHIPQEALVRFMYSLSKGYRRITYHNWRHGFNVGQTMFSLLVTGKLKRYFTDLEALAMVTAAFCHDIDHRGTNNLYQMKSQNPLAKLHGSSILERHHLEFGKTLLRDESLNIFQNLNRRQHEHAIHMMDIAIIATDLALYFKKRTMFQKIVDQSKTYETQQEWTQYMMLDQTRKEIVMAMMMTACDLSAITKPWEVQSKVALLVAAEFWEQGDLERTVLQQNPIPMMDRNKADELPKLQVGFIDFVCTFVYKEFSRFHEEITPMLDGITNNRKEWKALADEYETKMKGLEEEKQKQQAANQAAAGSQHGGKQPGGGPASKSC
T2 sequence (P23439 2-850 limits assumed): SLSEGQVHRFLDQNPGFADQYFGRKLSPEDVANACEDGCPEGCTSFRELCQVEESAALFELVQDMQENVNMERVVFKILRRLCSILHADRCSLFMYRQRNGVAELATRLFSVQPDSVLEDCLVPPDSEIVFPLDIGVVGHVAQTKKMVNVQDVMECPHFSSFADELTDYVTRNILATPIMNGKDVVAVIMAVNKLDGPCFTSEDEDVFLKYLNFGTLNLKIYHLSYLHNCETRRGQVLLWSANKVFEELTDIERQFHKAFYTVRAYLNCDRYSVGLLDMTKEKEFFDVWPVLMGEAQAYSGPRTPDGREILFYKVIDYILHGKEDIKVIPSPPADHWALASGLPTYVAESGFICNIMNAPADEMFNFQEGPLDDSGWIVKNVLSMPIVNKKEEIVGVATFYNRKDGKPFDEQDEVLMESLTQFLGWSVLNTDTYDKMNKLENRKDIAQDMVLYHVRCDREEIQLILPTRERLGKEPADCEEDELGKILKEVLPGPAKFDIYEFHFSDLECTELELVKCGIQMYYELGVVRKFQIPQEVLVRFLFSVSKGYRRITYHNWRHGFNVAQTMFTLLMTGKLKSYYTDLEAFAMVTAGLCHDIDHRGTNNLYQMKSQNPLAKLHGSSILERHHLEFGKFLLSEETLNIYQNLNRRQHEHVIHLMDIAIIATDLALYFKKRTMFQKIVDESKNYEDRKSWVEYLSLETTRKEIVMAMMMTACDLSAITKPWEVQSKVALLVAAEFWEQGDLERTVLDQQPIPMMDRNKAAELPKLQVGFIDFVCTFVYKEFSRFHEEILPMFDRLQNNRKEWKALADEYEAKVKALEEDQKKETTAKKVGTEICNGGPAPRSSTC
T2 sequence (P04972 1-87 partner): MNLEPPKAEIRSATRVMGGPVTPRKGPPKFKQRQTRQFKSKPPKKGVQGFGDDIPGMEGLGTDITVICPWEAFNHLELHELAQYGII
The data set can be described thus: PDE6 enzyme inhibition, IC50 determination. The format is biochemical. To be noted: for PDE6/PDE5: ratio of IC50 versus PDE6 to IC50 versus PDE5. As for the experimental part: Bovine PDE6 was supplied by Dr. N. Virmaux, INSERM U338, Strasbourg. Bovine retinas were prepared as described by Virmaux et al., FEBS Letters, 12(6), pp. 325-328 (1971) and see also, A. Sitaramayya et al., Exp. Eye Res., 25, pp. 163-169 (1977). Briefly, unless stated otherwise, all operations were done in the cold and in dim red light. Eyes were kept in the cold and in the dark for up to four hours after slaughtering.
Preparation of bovine retinal outer segment (ROS) basically followed procedures described by Schichi et al., J. Biol. Chem., 224:529 (1969). In a typical experiment, 35 bovine retinas were ground in a mortar with 35 mL 0.066 M phosphate buffer, pH 7.0, made up to 40% with sucrose, followed by homogenization in a Potter homogenizer (20 up and down strokes). The suspension was centrifuged at 25,000×g for 20 minutes. The pellet was homogenized in 7.5 mL 0.006 M phosphate buffer (40% in sucrose), and carefully layered under 7.5 mL of phosphate buffer (containing no sucrose). Centrifugation was conducted in a swing-out rotor at 45,000×g for 20 minutes, and produced a pellet which is black at the bottom, and also a red band at the interface 0.066 M. phosphate—40% sucrose/0.066 M phosphate (crude ROS). The red material at the interface was removed, diluted with phosphate buffer, spun down to a pellet, and redistributed in buffered 40% sucrose as described above. This procedure was repeated 2 or 3 times until no pellet was formed. The purified ROS was washed in phosphate buffer and finally spun down to a pellet at 25,000×g for 20 minutes. All materials were then kept frozen until used.
Hypotonic extracts were prepared by suspending isolated ROS in 10 mM Tris-Cl pH 7.5, 1 mM EDTA, and 1 mM dithioerythritol, followed by centrifugation at 100,000×g for 30 minutes.
The preparation was reported to have a specific activity of about 35 nmoles cGMP hydrolyzed per minute per milligram protein.
Biophys. Acta, 384:430 (1975).

The subject of data set [3] is patients taking organic nitrates. The conditions noted are these: in combination with organic nitrates; cited from earlier work.
Data set [4] has as its target PDE2 (Homo sapiens, UniProt O00408). The conditions noted are these: package insert; cited from earlier work.
Data set [5] concerns PDE4. To be noted: package insert; cited from earlier work.
Data set [6] has as its system PDE3. The conditions noted are these: package insert; cited from earlier work.
The test system of data set [7] is PDE1. To be noted: package insert; cited from earlier work.

PDE2, sequence (O00408 whole entry): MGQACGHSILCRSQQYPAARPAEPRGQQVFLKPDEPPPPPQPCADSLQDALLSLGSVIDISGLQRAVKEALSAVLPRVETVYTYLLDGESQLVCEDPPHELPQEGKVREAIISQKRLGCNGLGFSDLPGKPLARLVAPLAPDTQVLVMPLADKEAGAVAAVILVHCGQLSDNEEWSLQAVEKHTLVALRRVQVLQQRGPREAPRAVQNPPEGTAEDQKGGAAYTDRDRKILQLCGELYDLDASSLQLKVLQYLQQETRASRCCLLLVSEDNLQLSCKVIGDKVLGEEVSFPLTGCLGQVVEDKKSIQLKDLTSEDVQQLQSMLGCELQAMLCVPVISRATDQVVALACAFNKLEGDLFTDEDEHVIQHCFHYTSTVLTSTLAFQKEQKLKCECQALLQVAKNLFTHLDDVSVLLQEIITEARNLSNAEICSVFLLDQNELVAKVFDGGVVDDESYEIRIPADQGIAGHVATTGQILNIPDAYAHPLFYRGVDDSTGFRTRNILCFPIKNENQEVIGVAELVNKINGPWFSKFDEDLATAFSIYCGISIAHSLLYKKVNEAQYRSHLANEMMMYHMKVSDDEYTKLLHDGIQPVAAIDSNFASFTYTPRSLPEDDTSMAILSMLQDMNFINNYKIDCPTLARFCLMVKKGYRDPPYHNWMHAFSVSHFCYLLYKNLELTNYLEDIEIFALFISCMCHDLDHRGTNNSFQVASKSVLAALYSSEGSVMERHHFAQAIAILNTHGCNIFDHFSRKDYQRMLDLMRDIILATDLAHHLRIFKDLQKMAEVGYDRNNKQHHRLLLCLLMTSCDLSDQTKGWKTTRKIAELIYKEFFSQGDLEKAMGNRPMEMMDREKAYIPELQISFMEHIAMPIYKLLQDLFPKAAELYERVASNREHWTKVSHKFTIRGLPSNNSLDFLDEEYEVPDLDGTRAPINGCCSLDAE

Consider `O=C1C2Cc3c([nH]c4ccccc34)C(c3ccc4c(c3)OCO4)N2C(=O)CN1Cc1ccc(NS(=O)(=O)C(F)(F)F)cc1` (centres unmarked) [Compound 1], for which it took 5 nM to reach half-maximal inhibition in data set [1] (IC50). In data set [2], inhibition was half-maximal at 663 nM (IC50) and the PDE6/PDE5 stood at 133.

Take `O=C1C2Cc3c([nH]c4ccccc34)C(c3ccc4c(c3)OCO4)N2C(=O)CN1Cc1cccc(NS(=O)(=O)C(F)(F)F)c1` (centres unmarked) [Compound 3]: the IC50 (commonly the midpoint of a concentration-inhibition curve) in data set [1] worked out at 2 nM. In addition, in data set [2], the IC50 was 420 nM and the PDE6/PDE5 is listed as 210.

In the case of `CC1NC(=O)C2Cc3c([nH]c4ccccc34)C(c3ccc4c(c3)OCO4)N2C1=O` (centres unmarked) [Compound 4], the IC50 in data set [1] was 5 nM; in data set [2], 729 nM. Also, the PDE6/PDE5 in data set [2] is 146.

For `CCCc1nn(C)c2c(=O)[nH]c(-c3cc(S(=O)(=O)N4CCN(C)CC4)ccc3OCC)nc12` [sildenafil], the “effect on hypotensive effects of nitrates” value in data set [3] is given as “potentiates the hypotensive effects of nitrates”. The “more potent inhibitor of PDE5 than PDE2” value in data set [4] is “greater than 1,000 fold”. In data set [5], the “more potent inhibitor of PDE5 than PDE4” value is reported as “greater than 1,000 fold”. Further, the “more potent inhibitor of PDE5 than PDE3” value in data set [6] is “greater than 1,000 fold”. In data set [7], the “more potent inhibitor of PDE5 than PDE1” value is “greater than 80 fold”.
